# What was measured:
# [1] = target: T1, glutathione-S-transferase (GST) tagged LXRbeta LBD (ligand binding domain) (Homo sapiens, UniProt P55055); test: LanthaScreen TR-FRET Liver X Receptor Coactivator Assay, LXR beta-LBD; assay type: biochemical; conditions: for Emax: efficacy in relation to reference dual agonist T1317, read-out: LXR beta activity at max dose (%) (Emax); for EC50: potency (Inflection Point) of co-activator recruitment, TR-FRET, read-out: LXR beta IP
# T1 construct: purchased Invitrogen pv4658.pps
# T1 sequence (P55055 222-460 limits assumed): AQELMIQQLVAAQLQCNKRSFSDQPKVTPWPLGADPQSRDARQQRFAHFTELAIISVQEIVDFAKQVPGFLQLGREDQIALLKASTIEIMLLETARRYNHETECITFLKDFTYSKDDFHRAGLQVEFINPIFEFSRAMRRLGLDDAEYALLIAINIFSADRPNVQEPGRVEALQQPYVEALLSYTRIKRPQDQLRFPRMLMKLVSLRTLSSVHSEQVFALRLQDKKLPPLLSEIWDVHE
# Outline: (§1)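 LXR alpha- or beta-LBD was added to test compounds, then a mix of fluorescein-labelled coactivator peptide and terbium anti-GST antibody. After room-temperature incubation, TR-FRET was read on a filter-based reader.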
# [2] = target: T2, glutathione-S-transferase (GST) tagged LXRalpha LBD (ligand binding domain) (Homo sapiens, UniProt Q13133); test: LanthaScreen TR-FRET Liver X Receptor Coactivator Assay, LXR alpha-LBD; assay type: biochemical; conditions: for Emax: efficacy in relation to reference dual agonist T1317, read-out: LXR alpha activity at max dose (%) (Emax); for EC50 / LXR alpha IP (nM): potency (Inflection Point) of co-activator recruitment, TR-FRET; for EC50: read-out: LXR alpha IP
# T2 construct: purchased Invitrogen pv4655
# T2 sequence (Q13133 209-447 limits assumed): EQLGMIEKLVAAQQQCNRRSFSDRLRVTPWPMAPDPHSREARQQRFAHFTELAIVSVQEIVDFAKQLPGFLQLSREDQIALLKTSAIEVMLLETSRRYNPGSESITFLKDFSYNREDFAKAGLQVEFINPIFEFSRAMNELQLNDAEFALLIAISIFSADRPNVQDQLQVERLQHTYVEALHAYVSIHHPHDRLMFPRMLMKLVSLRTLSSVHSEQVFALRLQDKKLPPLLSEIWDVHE
# Outline: as §1
Emax [1],EC50 [1],Emax [2],EC50 [2],LXR alpha IP (nM) [2],SMILES
85%,36 nM,41%,8590 nM,,"COc1ccccc1COC(=O)N1CCN(c2ncc(-c3ccc(C(=O)N(C)C)c(Cl)c3)cc2C#N)CC1 [Example 3-7, 2-methoxybenzyl 4-{5-[3-chloro-4-(dimethylcarbamoyl)phenyl]-3-cyanopyridin-2-yl}piperazine-1-carboxylate]"
65%,210 nM,65%,24600 nM,,"COc1ccc(COC(=O)N2CCN(c3ncc(-c4ccc(C(=O)N(C)C)c(Cl)c4)cc3C#N)CC2)cc1 [Example 3-8, 4-methoxybenzyl 4-{5-[3-chloro-4-(dimethylcarbamoyl)phenyl]-3-cyanopyridin-2-yl}piperazine-1-carboxylate]"
84%,155 nM,39%,8900 nM,,"CN(C)C(=O)c1ccc(-c2cnc(N3CCN(C(=O)OCc4ccccc4Cl)CC3)c(C#N)c2)cc1Cl [Example 3-9, 2-chlorobenzyl 4-{5-[3-chloro-4-(dimethylcarbamoyl)phenyl]-3-cyanopyridin-2-yl}piperazine-1-carboxylate]"
75%,68 nM,79%,23500 nM,,"CN(C)C(=O)c1ccc(-c2cnc(N3CCN(C(=O)OCc4cccc(Cl)c4)CC3)c(C#N)c2)cc1Cl [Example 3-10, 3-chlorobenzyl 4-{5-[3-chloro-4-(dimethylcarbamoyl)phenyl]-3-cyanopyridin-2-yl}piperazine-1-carboxylate]"
96%,79 nM,39%,1200 nM,,"CN(C)C(=O)c1ccc(-c2cnc(N3CCN(C(=O)OCc4ccccc4C(F)(F)F)CC3)c(C#N)c2)cc1Cl [Example 3-11, 2-(trifluoromethyl)benzyl 4-{5-[3-chloro-4-(dimethylcarbamoyl)phenyl]-3-cyanopyridin-2-yl}piperazine-1-carboxylate]"
55%,39 nM,30%,4330 nM,,"CN(C)C(=O)c1ccc(-c2cnc(N3CCN(C(=O)OCC4(C)CC4)CC3)c(C#N)c2)cc1Cl [Example 3-12, (1-methylcyclopropyl)methyl 4-{5-[3-chloro-4-(dimethylcarbamoyl)phenyl]-3-cyanopyridin-2-yl}piperazine-1-carboxylate]"
31%,105 nM,16%,,No IP,"CN(C)C(=O)c1ccc(-c2cnc(N3CCN(C(=O)OCC4CC4(C)C)CC3)c(C#N)c2)cc1Cl (stereo not shown) [Example 3-13, (2,2-dimethylcyclopropyl)methyl 4-{5-[3-chloro-4-(dimethylcarbamoyl)phenyl]-3-cyanopyridin-2-yl}piperazine-1-carboxylate]"
74%,57 nM,26%,4830 nM,,"CN(C)C(=O)c1ccc(-c2cnc(N3CCN(C(=O)OCc4ccccc4)CC3)c(C#N)c2)cc1Cl [Example 3-14, benzyl 4-{5-[3-chloro-4-(dimethylcarbamoyl)phenyl]-3-cyanopyridin-2-yl}piperazine-1-carboxylate]"
93%,2320 nM,24%,,No IP,"CN(C)C(=O)c1ccc(-c2ccc(N3CCN(C(=O)c4ccccc4C#N)CC3)cc2)cc1Cl [Example 4-2, 3-chloro-4′-{4-[(2-cyanophenyl)carbonyl]piperazin-1-yl}-N,N-dimethylbiphenyl-4-carboxamide]"
87%,39 nM,79%,1570 nM,,"CN(C)C(=O)c1ccc(-c2ccc(N3CC4CCC3CN4C(=O)OC(C)(C)C)c(Cl)c2)cc1Cl (stereo not shown) [Example 4-3, tert-butyl 5-[3,3′-dichloro-4′-(dimethylcarbamoyl)biphenyl-4-yl]-2,5-diazabicyclo[2.2.2]octane-2-carboxylate]"

# From patent publication US10239849B2 (Merck Sharp & Dohme Corp., priority 2015, dated 2019)
